In PubChem BioAssay AID248 (DTP/NCI, 2004):
Several values for one entry are separate records, joined by “and”; a condition that tells them apart may be missing. Equal entries are not always repeated. Inconclusive results and toxic doses are left out.

Tested on: L1210 leukemia ip in BDF1 mice, survival T/C
Test: NCI In Vivo Anticancer Drug Screen. Data for tumor model L1210 Leukemia (intraperitoneal) in B6D2F1 (BDF1) mice
Conditions: endpoint: mean survival time, higher = longer survival
Summary of the method: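 In this screen, tumor-bearing mice given compound are compared to those given vehicle, and their survival values are reported as a treated-to-control quotient.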

[1] = dose: 100.0 mg/kg/injection, schedule: Q01DX009 (ip), vehicle: Klucel (hydroxypropylcellulose) (HPC)
[2] = dose: 200.0 mg/kg/injection, schedule: Q01DX009 (ip), vehicle: Klucel (hydroxypropylcellulose) (HPC)
[3] = dose: 400.0 mg/kg/injection, schedule: Q01DX009 (ip), vehicle: Klucel (hydroxypropylcellulose) (HPC)
[4] = dose: 50.0 mg/kg/injection, schedule: Q01DX009 (ip), vehicle: saline with Tween-80
[5] = dose: 100.0 mg/kg/injection, schedule: Q01DX009 (ip), vehicle: saline with Tween-80
[6] = dose: 100.0 mg/kg/injection, schedule: Q01DX001 (ip), vehicle: saline
[7] = dose: 200.0 mg/kg/injection, schedule: Q01DX001 (ip), vehicle: saline
[8] = dose: 400.0 mg/kg/injection, schedule: Q01DX001 (ip), vehicle: saline
[9] = dose: 100.0 mg/kg/injection, schedule: Q04DX002 (ip), vehicle: saline with Tween-80
[10] = dose: 200.0 mg/kg/injection, schedule: Q04DX002 (ip), vehicle: saline with Tween-80
[11] = dose: 400.0 mg/kg/injection, schedule: Q04DX002 (ip), vehicle: saline with Tween-80

## Cc1ccc(C(=O)C=O)c(C)c1
[1]
  T/C: 96 % of control
[2]
  T/C: 105 % of control
[3]
  T/C: 109 % of control

## C=CCCCCCCCCC(=O)N(C)OC
dose: 25.0 mg/kg/injection, schedule: Q01DX009 (ip), vehicle: saline with Tween-80
  T/C: 97 % of control
[4]
  T/C: 105 % of control
[5]
  T/C: 94 % of control and 92 % of control

## CCOP(=O)(OCC)C(CC=C(C)C)C(C)=O (centres undefined)
[4]
  T/C: 100 % of control
[5]
  T/C: 94 % of control
dose: 200.0 mg/kg/injection, schedule: Q01DX009 (ip), vehicle: saline with Tween-80
  T/C: 88 % of control

## Nc1ccc([N+](=O)[O-])cc1Cl
dose: 100.0 mg/kg/injection, schedule: Q04DX002 (ip), vehicle: Klucel (hydroxypropylcellulose) (HPC)
  T/C: 122 % of control
dose: 200.0 mg/kg/injection, schedule: Q04DX002 (ip), vehicle: Klucel (hydroxypropylcellulose) (HPC)
  T/C: 105 % of control
dose: 400.0 mg/kg/injection, schedule: Q04DX002 (ip), vehicle: Klucel (hydroxypropylcellulose) (HPC)
  T/C: 97 % of control

## COc1cccc(NC(=S)NC2CC(C)CC(C)(C)C2)c1 (centres undefined)
dose: 100.0 mg/kg/injection, schedule: Q04DX002 (ip), vehicle: gum acacia
  T/C: 95 % of control
dose: 200.0 mg/kg/injection, schedule: Q04DX002 (ip), vehicle: gum acacia
  T/C: 98 % of control
dose: 400.0 mg/kg/injection, schedule: Q04DX002 (ip), vehicle: gum acacia
  T/C: 95 % of control

## CCCCCCC(C)S(=O)(=O)c1ccc(C)cc1 (centres undefined)
[6]
  T/C: 87 % of control and 94 % of control
[7]
  T/C: 90 % of control and 91 % of control
[8]
  T/C: 94 % of control

## CC(=O)/C=C/c1ccco1
dose: 12.5 mg/kg/injection, schedule: Q01DX009 (ip), vehicle: DMSO
  T/C: 101 % of control
dose: 25.0 mg/kg/injection, schedule: Q01DX009 (ip), vehicle: DMSO
  T/C: 97 % of control
dose: 25.0 mg/kg/injection, schedule: Q04DX003 (ip), vehicle: DMSO
  T/C: 96 % of control
dose: 50.0 mg/kg/injection, schedule: Q01DX009 (ip), vehicle: DMSO
  T/C: 92 % of control
dose: 50.0 mg/kg/injection, schedule: Q04DX003 (ip), vehicle: DMSO
  T/C: 108 % of control
dose: 100.0 mg/kg/injection, schedule: Q04DX003 (ip), vehicle: DMSO
  T/C: 98 % of control

## Oc1ccc(Br)cc1C=Nc1cccc(C(F)(F)F)c1
[9]
  T/C: 102 % of control
[10]
  T/C: 100 % of control
[11]
  T/C: 96 % of control

## C=C1N(C)c2ccccc2C1(C)C
dose: 0.5 mg/kg/injection, schedule: Q01DX015 (ip), vehicle: carboxymethylcellulose (CMC)
  T/C: 97 % of control
dose: 1.0 mg/kg/injection, schedule: Q01DX015 (ip), vehicle: carboxymethylcellulose (CMC)
  T/C: 101 % of control
dose: 2.0 mg/kg/injection, schedule: Q01DX015 (ip), vehicle: carboxymethylcellulose (CMC)
  T/C: 104 % of control
dose: 4.0 mg/kg/injection, schedule: Q01DX015 (ip), vehicle: carboxymethylcellulose (CMC)
  T/C: 97 % of control and 123 % of control
dose: 8.0 mg/kg/injection, schedule: Q01DX015 (ip), vehicle: carboxymethylcellulose (CMC)
  T/C: 123 % of control

## C/C=C1/CN2CCC1CC2C(O)c1ccnc2ccc(O)cc12 (centres undefined)
dose: 75.0 mg/kg/injection, schedule: Q01DX001 (ip), vehicle: saline
  T/C: 101 % of control

## O=C(Nc1ccc(NC(=O)Nc2cccc(C3=NCCN3)c2)cc1)Nc1cccc(C2=NCCN2)c1
dose: 3.5 mg/kg/injection, schedule: Q#A X Z (ip), vehicle: saline
  T/C: 106 % of control
dose: 7.0 mg/kg/injection, schedule: Q01DX Z (ip), vehicle: saline
  T/C: 115 % of control
dose: 7.5 mg/kg/injection, schedule: Q01DX006 (iv), vehicle: saline
  T/C: 98 % of control
dose: 7.5 mg/kg/injection, schedule: Q#A X Z (ip), vehicle: saline
  T/C: 117 % of control
dose: 15.0 mg/kg/injection, schedule: Q01DX006 (iv), vehicle: saline
  T/C: 107 % of control
dose: 15.0 mg/kg/injection, schedule: Q01DX Z (ip), vehicle: saline
  T/C: 111 % of control
dose: 23.0 mg/kg/injection, schedule: Q03DX Z (ip), vehicle: saline
  T/C: 116 % of control
dose: 30.0 mg/kg/injection, schedule: Q01DX006 (iv), vehicle: saline
  T/C: 116 % of control
dose: 30.0 mg/kg/injection, schedule: Q01DX Z (sc), vehicle: carboxymethylcellulose (CMC)
  T/C: 102 % of control
dose: 47.0 mg/kg/injection, schedule: Q03DX Z (ip), vehicle: saline
  T/C: 119 % of control
dose: 55.0 mg/kg/injection, schedule: Q07DX Z (ip), vehicle: saline
  T/C: 121 % of control
dose: 60.0 mg/kg/injection, schedule: Q01DX010 (ip), vehicle: saline
  T/C: 151 % of control and 153 % of control
dose: 60.0 mg/kg/injection, schedule: Q01DX Z (im), vehicle: saline
  T/C: 110 % of control
dose: 60.0 mg/kg/injection, schedule: Q01DX Z (ip), vehicle: carboxymethylcellulose (CMC)
  T/C: 286 % of control
dose: 60.0 mg/kg/injection, schedule: Q01DX Z (sc), vehicle: carboxymethylcellulose (CMC)
  T/C: 110 % of control
dose: 94.0 mg/kg/injection, schedule: Q03DX Z (ip), vehicle: saline
  T/C: 121 % of control
dose: 120.0 mg/kg/injection, schedule: Q01DX010 (ip), vehicle: saline
  T/C: 182 % of control and 215 % of control
dose: 120.0 mg/kg/injection, schedule: Q01DX Z (im), vehicle: saline
  T/C: 100 % of control
dose: 120.0 mg/kg/injection, schedule: Q01DX Z (ip), vehicle: carboxymethylcellulose (CMC)
  T/C: 151 % of control
dose: 120.0 mg/kg/injection, schedule: Q01DX Z (sc), vehicle: carboxymethylcellulose (CMC)
  T/C: 104 % of control
dose: 148.0 mg/kg/injection, schedule: Q01DX Z (ip), vehicle: carboxymethylcellulose (CMC)
  T/C: 208 % of control
dose: 219.0 mg/kg/injection, schedule: Q07DX Z (ip), vehicle: saline
  T/C: 154 % of control
dose: 222.0 mg/kg/injection, schedule: Q01DX Z (ip), vehicle: carboxymethylcellulose (CMC)
  T/C: 298 % of control
dose: 240.0 mg/kg/injection, schedule: Q01DX010 (ip), vehicle: saline
  T/C: 236 % of control and 263 % of control
dose: 240.0 mg/kg/injection, schedule: Q01DX Z (ip), vehicle: carboxymethylcellulose (CMC)
  T/C: 318 % of control
dose: 333.0 mg/kg/injection, schedule: Q01DX Z (ip), vehicle: carboxymethylcellulose (CMC)
  T/C: 353 % of control
dose: 480.0 mg/kg/injection, schedule: Q01DX010 (ip), vehicle: saline
  T/C: 112 % of control and 268 % of control
dose: 480.0 mg/kg/injection, schedule: Q01DX Z (im), vehicle: saline
  T/C: 184 % of control
dose: 480.0 mg/kg/injection, schedule: Q01DX Z (ip), vehicle: carboxymethylcellulose (CMC)
  T/C: 102 % of control and 242 % of control
dose: 500.0 mg/kg/injection, schedule: Q01DX Z (ip), vehicle: carboxymethylcellulose (CMC)
  T/C: 328 % of control

## Cc1cccc(Cl)c1OCC(O)COc1c(C)cccc1Cl
[9]
  T/C: 92 % of control
[10]
  T/C: 95 % of control
[11]
  T/C: 95 % of control

## CCCCCC(Br)C(Br)CC(Br)C(Br)CCCCCCCC(=O)O (centres undefined)
[1]
  T/C: 95 % of control
dose: 100.0 mg/kg/injection, schedule: Q04DX003 (ip), vehicle: Klucel (hydroxypropylcellulose) (HPC)
  T/C: 98 % of control
dose: 100.0 mg/kg/injection, schedule: Q04DX003 (ip), vehicle: saline with Tween-80
  T/C: 98 % of control
[2]
  T/C: 90 % of control
dose: 200.0 mg/kg/injection, schedule: Q04DX003 (ip), vehicle: saline with Tween-80
  T/C: 97 % of control
[3]
  T/C: 93 % of control
dose: 400.0 mg/kg/injection, schedule: Q04DX003 (ip), vehicle: Klucel (hydroxypropylcellulose) (HPC)
  T/C: 93 % of control
dose: 400.0 mg/kg/injection, schedule: Q04DX003 (ip), vehicle: saline with Tween-80
  T/C: 91 % of control

## CC1(C)S[C@@H]2[C@H](NC(=O)Cc3ccc([N+](=O)[O-])cc3)CN2[C@H]1N=C=O
[6]
  T/C: 93 % of control
[7]
  T/C: 91 % of control
[8]
  T/C: 98 % of control

## CCCCCCC[CH2][Sn]([Cl])([Cl])[CH2]CCCCCCC
dose: 50.0 mg/kg/injection, schedule: Q01DX001 (ip), vehicle: carboxymethylcellulose (CMC)
  T/C: 96 % of control
dose: 100.0 mg/kg/injection, schedule: Q01DX001 (ip), vehicle: carboxymethylcellulose (CMC)
  T/C: 96 % of control
dose: 200.0 mg/kg/injection, schedule: Q01DX001 (ip), vehicle: carboxymethylcellulose (CMC)
  T/C: 96 % of control
dose: 400.0 mg/kg/injection, schedule: Q01DX001 (ip), vehicle: carboxymethylcellulose (CMC)
  T/C: 96 % of control

## O=C1c2cscc2C(O)(c2ccccc2)c2c(Cl)sc(Cl)c21 (centres undefined)
dose: 100.0 mg/kg/injection, schedule: Q01DX001 (ip), vehicle: saline with Tween-80
  T/C: 88 % of control
dose: 200.0 mg/kg/injection, schedule: Q01DX001 (ip), vehicle: saline with Tween-80
  T/C: 88 % of control
dose: 400.0 mg/kg/injection, schedule: Q01DX001 (ip), vehicle: saline with Tween-80
  T/C: 88 % of control
